Reference: patent US20170189504A1, “NOVEL PEPTIDES AND COMBINATION OF PEPTIDES FOR USE IN IMMUNOTHERAPY AGAINST VARIOUS CANCERS” (immatics biotechnologies GmbH, priority 2015, published 2017)

Assays:
[1] = system: HLA-A*02; experiment: MHC binding assay, UV-ligand exchange with β2m ELISA, HLA-A*02 (Table 20); set-up: species or system human; conditions: binding to HLA-A*02 ranged by peptide exchange yield (UV-ligand exchange, β2m ELISA)
How it was run: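 Peptide–MHC complexes made by UV-ligand exchange of a UV-cleavable peptide, diluted 100-fold and captured on streptavidin plates. Stabilized complexes detected by HRP anti-β2m ELISA (1 h, 37° C, A450). Exchange yield derived against refolded HLA-A*02:01/MLA-001 monomer standards (15-500 ng/ml).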

[2] = system: CD8+ T cells; experiment: In vitro immunogenicity: T-cell priming with aAPCs loaded with peptide/MHC complexes and anti-CD28 antibody, pMHC multimer readout (Tables 19A, 19B); type: cell-based, human; conditions: for Wells positive [%]: in vitro immunogenicity of HLA class I peptides, pMHC multimer readout after priming of CD8+ T cells; for Share of positive wells (percent class): in vitro immunogenicity, healthy donors, three stimulation cycles
Experimental: In an aspect, the peptides are pre-screened for immunogenicity before being included in the warehouse. By way of example, and not limitation, the immunogenicity of the peptides included in the warehouse is determined by a method comprising in vitro T-cell priming through repeated stimulations of CD8+ T cells from healthy donors with artificial antigen presenting cells loaded with peptide/MHC complexes and anti-CD28 antibody.
In order to obtain information regarding the immunogenicity of the TUMAPs of the present invention, the inventors performed investigations using an in vitro T-cell priming assay based on repeated stimulations of CD8+ T cells with artificial antigen presenting cells (aAPCs) loaded with peptide/MHC complexes and anti-CD28 antibody.
In order to perform in vitro stimulations by artificial antigen presenting cells loaded with peptide-MHC complex (pMHC) and anti-CD28 antibody, the inventors first isolated CD8+ T cells from fresh HLA-A*02 leukapheresis products via positive selection using CD8 microbeads (Miltenyi Biotec, Bergisch-Gladbach, Germany) of healthy donors obtained from the University clinics Mannheim, Germany, after informed consent.
PBMCs and isolated CD8+ lymphocytes were incubated in T-cell medium (TCM) until use consisting of RPMI-Glutamax (Invitrogen, Karlsruhe, Germany) supplemented with 10% heat inactivated human AB serum (PAN-Biotech, Aidenbach, Germany), 100 U/ml Penicillin/100 μg/ml Streptomycin (Cambrex, Cologne, Germany), 1 mM sodium pyruvate (CC Pro, Oberdorla, Germany), 20 μg/ml Gentamycin (Cambrex). 2.5 ng/ml IL7 (PromoCell, Heidelberg, Germany) and 10 U/ml IL-2 (Novartis Pharma, Nurnberg, Germany) were also added to the TCM at this step.
Generation of pMHC/anti-CD28 coated beads, T-cell stimulations and readout was performed in a highly defined in vitro system using four different pMHC molecules per stimulation condition and 8 different pMHC molecules per readout condition.
The purified co-stimulatory mouse IgG2a anti human CD28 Ab 9.3 (Jung et al., 1987) was chemically biotinylated using Sulfo-N-hydroxysuccinimidobiotin as recommended by the manufacturer (Perbio, Bonn, Germany). Beads used were 5.6 μm diameter streptavidin coated polystyrene particles (Bangs Laboratories, Illinois, USA).
pMHC used for positive and negative control stimulations were A*0201/MLA-001 (peptide […] (SEQ ID NO. 303) from modified Melan-A/MART-1) and A*0201/DDX5-001 ([…] from DDX5, SEQ ID NO. 304), respectively.
800.000 beads/200 μl were coated in 96-well plates in the presence of 4×12.5 ng different biotin-pMHC, washed and 600 ng biotin anti-CD28 were added subsequently in a volume of 200 μl. Stimulations were initiated in 96-well plates by co-incubating […] CD8+ T cells with 2×10^5 washed coated beads in 200 μl TCM supplemented with 5 ng/ml IL-12 (PromoCell) for 3 days at 37° C. Half of the medium was then exchanged by fresh TCM supplemented with 80 U/ml IL-2 and incubating was continued for 4 days at 37° C. This stimulation cycle was performed for a total of three times. For the pMHC multimer readout using 8 different pMHC molecules per condition, a two-dimensional combinatorial coding approach was used as previously described (Andersen et al., 2012) with minor modifications encompassing coupling to 5 different fluorochromes. Finally, multimeric analyses were performed by staining the cells with Live/dead near IR dye (Invitrogen, Karlsruhe, Germany), CD8-FITC antibody clone SK1 (BD, Heidelberg, Germany) and fluorescent pMHC multimers. For analysis, a BD LSRII SORP cytometer equipped with appropriate lasers and filters was used. Peptide specific cells were calculated as percentage of total CD8+ cells. Evaluation of multimeric analysis was done using the FlowJo software (Tree Star, Oreg., USA). In vitro priming of specific multimer+ CD8+ lymphocytes was detected by comparing to negative control stimulations.

[3] = system: HLA-A*24; experiment: MHC binding assay, UV-ligand exchange with β2m ELISA, HLA-A*24 (Table 21); set-up: species or system human; conditions: binding to HLA-A*24 ranged by peptide exchange yield (UV-ligand exchange, β2m ELISA)
Excerpt: Candidate peptides for T cell based therapies according to the present invention were further tested for their MHC binding capacity (affinity). The individual peptide-MHC complexes were produced by UV-ligand exchange, where a UV-sensitive peptide is cleaved upon UV-irradiation, and exchanged with the peptide of interest as analyzed. Only peptide candidates that can effectively bind and stabilize the peptide-receptive MHC molecules prevent dissociation of the MHC complexes. To determine the yield of the exchange reaction, an ELISA was performed based on the detection of the light chain ((β2m) of stabilized MHC complexes. The assay was performed as generally described in Rodenko et al. (Rodenko et al., 2006).
96 well MAXISorp plates (NUNC) were coated over night with 2 ug/ml streptavidin in PBS at room temperature, washed 4× and blocked for 1 h at 37° C. in 2% BSA containing blocking buffer. Refolded HLA-A*02:01/MLA-001 monomers served as standards, covering the range of 15-500 ng/ml. Peptide-MHC monomers of the UV-exchange reaction were diluted 100 fold in blocking buffer. Samples were incubated for 1 h at 37° C., washed four times, incubated with 2 ug/ml HRP conjugated anti-β2m for 1 h at 37° C., washed again and detected with TMB solution that is stopped with […]. Absorption was measured at 450 nm. Candidate peptides that show a high exchange yield (preferably higher than 50%, most preferred higher than 75%) are generally preferred for a generation and production of antibodies or fragments thereof, and/or T cell receptors or fragments thereof, as they show sufficient avidity to the MHC molecules and prevent dissociation of the MHC complexes.

Peptide exchange [1]	Peptide exchange [3]	Substance	Wells positive [%] [2]	Share of positive wells (percent class) [2]
++++ (≧75% = ++++)	–	1 (LLYPEPWSV; listed as Homo sapiens) [compound 1]	++ (20%-49% = ++)	–
++++ (≧75% = ++++)	–	248 (YLDRFLAGV; listed as Homo sapiens) [compound 248]	++ (20%-49% = ++)	–
+++ (50%-75% = +++)	–	247 (ALYEGYATV; listed as Homo sapiens) [compound 247]	++ (20%-49% = ++)	–
+++ (50%-75% = +++)	–	23 (SLFSDEFKV; listed as Homo sapiens) [compound 23]	++++ (≧70% = ++++)	–
++ (20%-49% = ++)	–	96 (LLVSHLYLV; listed as Homo sapiens) [compound 96]	++ (20%-49% = ++)	–
++++ (≧75% = ++++)	–	92 (GLLFSLRSV; listed as Homo sapiens) [compound 92]	++ (20%-49% = ++)	–
–	–	290 (KIVDFSYSV; listed as Homo sapiens) [compound 290]	–	++ (20%-49% = ++)
–	–	301 (AYKPGALTF; listed as Homo sapiens) [compound 301]	–	+ (<20% = +)
++++ (≧75% = ++++)	–	229 (AILAHLNTV; listed as Homo sapiens) [compound 229]	++ (20%-49% = ++)	–
+++ (50%-75% = +++)	–	11 (ALSPSYLTV; listed as Homo sapiens) [compound 11]	++ (20%-49% = ++)	–
–	–	291 (KLDETGNSL; listed as Homo sapiens) [compound 291]	–	+ (<20% = +)
+++ (50%-75% = +++)	–	7 (ILDHEVPSL; listed as Homo sapiens) [compound 7]	++ (20%-49% = ++)	–
+++ (50%-75% = +++)	–	5 (GIVAHIQEV; listed as Homo sapiens) [compound 5]	+ (<20% = +)	–
+++ (50%-75% = +++)	–	150 (VLYDRPLKI; listed as Homo sapiens) [compound 150]	++ (20%-49% = ++)	–
+++ (50%-75% = +++)	–	232 (KIFPAALQLV; listed as Homo sapiens) [compound 232]	++ (20%-49% = ++)	–
++++ (≧75% = ++++)	–	14 (ILAKDLFEI; listed as Homo sapiens) [compound 14]	++ (20%-49% = ++)	–
++++ (≧75% = ++++)	–	249 (GLCERLVSL; listed as Homo sapiens) [compound 249]	+ (<20% = +)	–
–	–	296 (TYVDSSHTI; listed as Homo sapiens) [compound 296]	–	+ (<20% = +)
++ (20%-49% = ++)	–	230 (KLQNIMMLL; listed as Homo sapiens) [compound 230]	++++ (≧70% = ++++)	–
+++ (50%-75% = +++)	–	138 (ALLAKILQI; listed as Homo sapiens) [compound 138]	++ (20%-49% = ++)	–

Peptide exchange [1]	Peptide exchange [3]	Substance	Wells positive [%] [2]	Share of positive wells (percent class) [2]
+++ (50%-75% = +++)	–	31 (TITETTVEV; listed as Homo sapiens) [compound 31]	+ (<20% = +)	–
+++ (50%-75% = +++)	–	235 (KIIDFLSAL; listed as Homo sapiens) [compound 235]	+++ (50%-69% = +++)	–
+++ (50%-75% = +++)	–	29 (YLLDPSITL; listed as Homo sapiens) [compound 29]	+ (<20% = +)	–
–	–	300 (AYVLRLETL; listed as Homo sapiens) [compound 300]	–	+ (<20% = +)
++++ (≧75% = ++++)	–	12 (GLLPLLHRA; listed as Homo sapiens) [compound 12]	++++ (≧70% = ++++)	–
+++ (50%-75% = +++)	–	6 (ALFDSLRHV; listed as Homo sapiens) [compound 6]	++ (20%-49% = ++)	–
+++ (50%-75% = +++)	–	26 (ALQEELTEL; listed as Homo sapiens) [compound 26]	+ (<20% = +)	–
–	–	293 (FLVDGSWSI; listed as Homo sapiens) [compound 293]	–	+ (<20% = +)
–	–	292 (GMMTAILGV; listed as Homo sapiens) [compound 292]	–	+ (<20% = +)
+++ (50%-75% = +++)	–	90 (FLQDLEQRL; listed as Homo sapiens) [compound 90]	+ (<20% = +)	–
–	–	295 (YYPGVILGF; listed as Homo sapiens) [compound 295]	–	++ (20%-49% = ++)
+++ (50%-75% = +++)	–	20 (GLSQITNQL; listed as Homo sapiens) [compound 20]	++ (20%-49% = ++)	–
–	–	298 (RYLEGTSCI; listed as Homo sapiens) [compound 298]	–	+ (<20% = +)
–	–	297 (PFLQASPHF; listed as Homo sapiens) [compound 297]	–	++ (20%-49% = ++)
–	++++ (≧75% = ++++)	202 (VYWDSAGAAHF; listed as Homo sapiens) [compound 202]	–	–
–	++ (20%-49% = ++)	215 (YFDKVVTL; listed as Homo sapiens) [compound 215]	–	–
–	+++ (50%-75% = +++)	226 (VYRDETGELF; listed as Homo sapiens) [compound 226]	–	–
–	+ (<20% = +)	194 (EFGSLHLEFL; listed as Homo sapiens) [compound 194]	–	–
–	+++ (50%-75% = +++)	190 (GFFIFNERF; listed as Homo sapiens) [compound 190]	–	–
